Reference: US20230078702A1, “USE OF MITOXANTRONE HYDROCHLORIDE LIPOSOME FOR TREATING BREAST CANCER” (CSPC ZHONGQI PHARMACEUTICAL TECHNOLOGY (SHIJIAZHUANG) CO., …, priority 2020, published 2023)
Structures can show the parent of a compound that is named as a salt.

What was measured:
[1] = tested on: patients with advanced recurrent or metastatic breast cancer; settings: human, in vivo
Description: The study is a randomized, open-labeled, active controlled, single center study to evaluate the safety and efficacy of the mitoxantrone hydrochloride liposome injection in patients with advanced recurrent or metastatic breast cancer.
Investigational product: mitoxantrone hydrochloride liposome injection (PLM60 (10 mg/10 mL/vial)) was added to 250 mL of 5% glucose at a dose of 20 mg/m^2 and was administered intravenously over 1 h.
Reference product: mitoxantrone hydrochloride injection (5 mg/5 mL/vial, manufactured by Sichuan Sunnyhope Pharmaceutical, Inc., supplied by CSPC ZHONGQI Pharmaceutical Technology (Shijiazhuang) Co., Ltd., Lot No. 1501201) was added to 100 mL of 5% glucose injection at a dose of 14 mg/m^2 and was administered intravenously over 30 min.
The safety assessment indicators included: vital signs, adverse events, laboratory tests (complete blood test, routine urinalysis, blood biochemistry, electrocardiogram, echocardiogram), and early withdrawal. Safety assessment criteria: NCI-CTC 4.0.
For the drug mitoxantrone, the most serious adverse event is cardiotoxicity. Clinical studies and practical observations have shown that the cardiotoxicity caused by anthracyclines are mainly progressive and irreversible. Especially anthracyclines can easily cause cardiac damage at first use. Cardiotoxicity is a common concern for clinicians since it is a long-term cumulative dose-limiting toxicity. The incidence of increased troponin T and the incidence of increased brain natriuretic peptide were used as indices for examining cardiotoxicity in this trial. The change of the cardiac troponin T level can reflect myocardium damage with high sensitivity; brain natriuretic peptide is a polypeptide hormone secreted by cardiomyocytes in the heart ventricles in response to stretching caused by increased ventricular blood volume and increased ventricular pressure.

[2] = tested on: patients with advanced recurrent or metastatic breast cancer; test: Efficacy evaluation (RECIST 1.1) in randomized, open-labeled, active controlled clinical study; assay type: in vivo, human; set-up: disease control rate (PR+SD): concentration or dose not given beside the values
Description: A tumor assessment was performed at baseline.
During the treatment period, the efficacy evaluation was performed once every two cycles; in addition, when the efficacy evaluation result was PR or CR, the efficacy should be radiologically confirmed after 4 weeks. After the completion of the treatment, the evaluation was performed every 3 months until disease progression. Tumor evaluation was performed according to RECIST 1.1 criteria.
Primary efficacy endpoint: objective response rate (ORR), referring to the ratio of subjects reaching PR and CR.
Secondary efficacy endpoint: progression-free survival (PFS), referring to the time from the start of randomization to disease progression or death.

## O=C1c2c(O)ccc(O)c2C(=O)c2c(NCCNCCO)ccc(NCCNCCO)c21 [Control group, mitoxantrone hydrochloride]
[1]
  Anemia, number of subjects: 14
  Decreased neutrophil count, number of subjects: 29
  Decreased platelet count, number of subjects: 16
  Decreased white blood cell count, number of subjects: 29
  Fever, number of subjects: 3
  Incidence of fever: (10.0%)
  Incidence of increased alanine aminotransferase: (26.70%)
  Incidence of increased blood bilirubin: (20.00%)
  Incidence of skin hyperpigmentation: 3.3%
  Increased alanine aminotransferase, number of subjects: 8
  Increased aspartate aminotransferase, number of subjects: 16
  Increased blood bilirubin, number of subjects: 6
  Increased brain natriuretic peptide, number of subjects: 10
  Increased conjugated bilirubin, number of subjects: 17
  Increased troponin T, number of subjects: 11
  overall incidence rate of adverse events: 100%
[2]; 3 months, FAS (N = 60)
  Progression-free survival rate: 26.7%
[2]; 3 months, PPS (N = 58)
  Progression-free survival rate: 28.6
[2]; 6 months, FAS (N = 60), hydrochloride
  Progression-free survival rate: 20.0%
[2]; 6 months, FAS (N = 60), listed as control group, hydrochloride
  Progression-free survival rate: 20%
[2]; 6 months, PPS (N = 58)
  Progression-free survival rate: 21.4
[2]; 12 months, FAS (N = 60)
  Progression-free survival rate: 0%
[2]; 12 months, PPS (N = 58)
  Progression-free survival rate: 0
[2]; 30 subjects per group
  disease control rate (PR+SD): 30%
  objective response rate (ORR): 6.7%
[2]; FAS (N = 60)
  Best overall response NA, number of subjects: 2
  Best overall response NA, percent of subjects: (6.7%)
  Best overall response PD, number of subjects: 19
  Best overall response PD, percent of subjects: (63.3%)
  Best overall response PR, percent of subjects: (6.7%)
  Best overall response SD, number of subjects: 7
  Best overall response SD, percent of subjects: (23.3%)
  Median PFS: 1.86 month
  Number of events (%) (PFS), percent: 83.3%
  Number of events (PFS): 25
[2]; FAS (N = 60), liposome 20 mg/m^2 or injection 14 mg/m^2 i.v. once every 4 weeks
  Best overall response PR, number of subjects: 2
[2]; PPS (N = 58)
  Best overall response NA, number of subjects: 0
  Best overall response NA, percent of subjects: (0.0) %
  Best overall response PD, number of subjects: 19
  Best overall response PD, percent of subjects: (67.9%)
  Best overall response PR, number of subjects: 2
  Best overall response PR, percent of subjects: (7.1%)
  Best overall response SD, number of subjects: 7
  Best overall response SD, percent of subjects: (28.6%)
  Median PFS: 1.86 month
  Number of events (%) (PFS), percent: 82.14%
  Number of events (PFS): 23
